# What was measured:
# [1] = system: MCF-7 (Breast) taxol sensitive cancer cells; assay: MTT cytotoxicity assay, MCF-7 taxol sensitive; assay type: cell-based; details: Homo sapiens, MCF7, 72 h, read-out: IC50 MCF-7 (Breast) (Taxol sensitive)
# Procedure: (§1) Cell cultures and cytotoxicity assays have been used. Celastrol was dissolved in DMSO at a final concentration of 100 mmol/L and stored at −20° C. Cytotoxicity was assessed using the 3-(4,5-dimethylthiazol-2-yl)-2,5-diphenyltetrazolium bromide assay. 4000 cells from A549 (lung), A2780 (ovary), HCT-8 (colon) and MCF-7 (breast) cancer cells were seeded on 96-well plates per well. After overnight pre-incubation, the cells were exposed to different concentrations of celastrol (0.039-100 μmol/L) or taxol for 3 days. Subsequently, 10 μL of MTT reagents was added to each well and incubated at 37° C. for 4 hours followed by the addition of 100 μL solubilization buffer (10% SDS in 0.01 mol/L HCl) and overnight incubation. Absorbance at 585 nm was determined from each well the next day. The percentage of cell viability was calculated using the following formula: Cell viability (%)=Cells number treated/Cells number DMSO control×100. Data were obtained from three independent experiments.
# [2] = system: SGC-7901 (Gastric) cisplatin resistant cancer cells; assay: MTT cytotoxicity assay, SGC-7901 cisplatin resistant; assay type: cell-based, human
# Procedure: as §1, with “from” for “from A549 (lung),”, “A2780 cisplatin sensitive/resistant ovarian cancer cells or SGC-7901 cisplatin sensitive/resistant gastric” for “A2780 (ovary), HCT-8 (colon) and MCF-7 (breast)”, “or cisplatin” for “or taxol”, “reagents were” for “reagents was”
# [3] = system: MDA-MB-231 pcDNA breast cancer cells; assay: MTT cytotoxicity assay, MDA-MB-231 pcDNA; assay type: cell-based; details: Homo sapiens, MDA-MB-231, 72 h, 3 days
# Procedure: as §1, with “from HEK293” for “from A549 (lung), A2780 (ovary), HCT-8 (colon)”, “and HEK293/ABCB5 kidney cancer cells or MDA-MB-231 pcDNA and MDA-MB-231/BCRP breast” for “and MCF-7 (breast)”, “celastrol (0.1-10” for “celastrol (0.039-100”, “μmol/L)” for “μmol/L) or taxol”, “reagents were” for “reagents was”
# [4] = system: A2780 (Ovary) taxol resistant cancer cells; assay: MTT cytotoxicity assay, A2780 taxol resistant; assay type: cell-based, human; details: for Resistant Factor: A2780 taxol resistant versus taxol sensitive
# Procedure: as §1
# [5] = system: MDA-MB-231/BCRP breast cancer cells; assay: MTT cytotoxicity assay, MDA-MB-231/BCRP; assay type: cell-based
# Procedure: as §1, with “from HEK293” for “from A549 (lung), A2780 (ovary), HCT-8 (colon)”, “and HEK293/ABCB5 kidney cancer cells or MDA-MB-231 pcDNA and MDA-MB-231/BCRP breast” for “and MCF-7 (breast)”, “celastrol (0.1-10” for “celastrol (0.039-100”, “μmol/L)” for “μmol/L) or taxol”, “reagents were” for “reagents was”
# [6] = system: A2780 (Ovary) cisplatin resistant cancer cells; assay: MTT cytotoxicity assay, A2780 cisplatin resistant; assay type: cell-based, human
# Procedure: as §1, with “from” for “from A549 (lung),”, “A2780 cisplatin sensitive/resistant ovarian cancer cells or SGC-7901 cisplatin sensitive/resistant gastric” for “A2780 (ovary), HCT-8 (colon) and MCF-7 (breast)”, “or cisplatin” for “or taxol”, “reagents were” for “reagents was”
# [7] = system: MCF-7 (Breast) doxorubicin sensitive cancer cells; assay: MTT cytotoxicity assay, MCF-7 doxorubicin sensitive; assay type: cell-based; details: Homo sapiens, MCF7, 72 h, read-out: IC50 MCF-7 (Breast) (Doxorubicin sensitive)
# Procedure: as §1, with “from” for “from A549 (lung), A2780 (ovary), HCT-8 (colon) and”, “MCF-7 doxorubicin sensitive/resistant breast” for “MCF-7 (breast)”, “cancer cells or CEM doxorubicin sensitive/resistant leukemia” for “cancer”, “or doxorubicin” for “or taxol”, “reagents were” for “reagents was”
# [8] = system: HCT-8 (Colon) taxol resistant cancer cells; assay: MTT cytotoxicity assay, HCT-8 taxol resistant; assay type: cell-based, human
# Procedure: as §1
# [9] = system: SGC-7901 (Gastric) cisplatin sensitive cancer cells; assay: MTT cytotoxicity assay, SGC-7901 cisplatin sensitive; assay type: cell-based, human; details: Homo sapiens, SGC-7901, 72 h, read-out: IC50 SGC-7901 (Gastric) (Cisplatin sensitive)
# Procedure: as §1, with “from” for “from A549 (lung),”, “A2780 cisplatin sensitive/resistant ovarian cancer cells or SGC-7901 cisplatin sensitive/resistant gastric” for “A2780 (ovary), HCT-8 (colon) and MCF-7 (breast)”, “or cisplatin” for “or taxol”, “reagents were” for “reagents was”
# [10] = system: HCT116 p53+/+ colon cancer cells; assay: MTT cytotoxicity assay, HCT116 p53+/+; assay type: cell-based; details: Homo sapiens, HCT-116, 72 h, read-out: IC50 HCT116 p53+/+ colon cancer cells
# Procedure: as §1, with “from HCT116 p53^+/+ or p53^−/− colon cancer cells” for “from A549 (lung), A2780 (ovary), HCT-8 (colon)”, “and DLD-1 Bax-Bak^+/+ or Bax-Bak^−/− colon” for “and MCF-7 (breast)”, “well. […]” for “well. After overnight pre-incubation, the cells were exposed to different concentrations of celastrol (0.039-100 μmol/L) or taxol for 3 days.”, “reagents were” for “reagents was”, “incubation. […]” for “incubation. Absorbance at 585 nm was determined from each well the next day.”
structure (smiles),measurement,setting,value
"CC1=C(O)C(=O)C=C2C1=CC=C1[C@@]2(C)CC[C@@]2(C)[C@@H]3C[C@](C)(C(=O)O)CC[C@]3(C)CC[C@]12C [Celastrol, celastrol]",IC50,[1],1.12 µM
same,IC50,"[2]; Homo sapiens, SGC-7901, 72 h, read-out: IC50 SGC-7901 (Gastric) (Cisplatin resistant)",1.72 µM
same,Resistant Factor,[2]; SGC-7901 cisplatin resistant versus cisplatin sensitive,0.88
same,IC50,[3],4.83 µM
same,Resistant Factor,[4],0.60
same,Resistant Factor,[4]; listed as celastrol,0.6
same,IC50,"[4]; Homo sapiens, A2780, 72 h, read-out: IC50 A2780 (Ovary) (Taxol resistant)",0.54 µM
same,Resistant Factor,[5]; IC50 MDA-MB-231/BCRP divided by IC50 MDA-MB-231 pcDNA,1.28
same,IC50,"[5]; MDA-MB-231/BCRP, 72 h, MTT, 3 days",6.19 µM
same,Resistant Factor,[6]; A2780 cisplatin resistant versus cisplatin sensitive,1.03
same,IC50,"[6]; Homo sapiens, A2780, 72 h, read-out: IC50 A2780 (Ovary) (Cisplatin resistant)",0.543 µM
same,IC50,[7],1.13 µM
same,Resistant Factor,[8]; HCT-8 taxol resistant versus taxol sensitive,0.59
same,IC50,"[8]; Homo sapiens, HCT-8, 72 h, read-out: IC50 HCT-8 (Colon) (Taxol resistant)",0.553 µM
same,IC50,[9],1.94 µM
same,IC50,[10],0.831 µM
